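GI50 is the concentration that inhibits growth by half. The concentration for full growth arrest is given as TGI.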
Key:
Assay in all cases: growth of human tumour cells (NCI), 384-well format
A498 renal = test system: A498 renal
A549 NSCLC = test system: A549 NSCLC
ACHN renal = test system: ACHN renal
BT-549 breast = test system: BT-549 breast
CAKI-1 renal = test system: CAKI-1 renal
COLO 205 colon = test system: COLO 205 colon
DU-145 prostate = test system: DU-145 prostate
EKVX NSCLC = test system: EKVX NSCLC
HCC-2998 colon = test system: HCC-2998 colon
HCT-116 colon = test system: HCT-116 colon
HCT-15 colon = test system: HCT-15 colon
HL-60(TB) leukemia = test system: HL-60(TB) leukemia
HOP-62 NSCLC = test system: HOP-62 NSCLC
HS 578T breast = test system: HS 578T breast
HT29 colon = test system: HT29 colon
LOX IMVI melanoma = test system: LOX IMVI melanoma
MALME-3M melanoma = test system: MALME-3M melanoma
MCF7 breast = test system: MCF7 breast
MDA-MB-231 breast = test system: MDA-MB-231 breast
MDA-MB-435 melanoma = test system: MDA-MB-435 melanoma
MDA-MB-468 breast = test system: MDA-MB-468 breast
MOLT-4 leukemia = test system: MOLT-4 leukemia
NCI-H226 lung = test system: NCI-H226 lung
NCI-H23 lung = test system: NCI-H23 lung
NCI-H322M lung = test system: NCI-H322M lung
NCI-H460 NSCLC = test system: NCI-H460 NSCLC
NCI/ADR-RES ovarian = test system: NCI/ADR-RES ovarian
OVCAR-4 ovarian = test system: OVCAR-4 ovarian
OVCAR-8 ovarian = test system: OVCAR-8 ovarian
PC-3 prostate = test system: PC-3 prostate
RPMI-8226 leukemia = test system: RPMI-8226 leukemia
RXF 393 renal = test system: RXF 393 renal
SF-268 CNS = test system: SF-268 CNS
SF-295 CNS = test system: SF-295 CNS
SF-539 CNS = test system: SF-539 CNS
SK-MEL-2 melanoma = test system: SK-MEL-2 melanoma
SK-MEL-28 melanoma = test system: SK-MEL-28 melanoma
SK-MEL-5 melanoma = test system: SK-MEL-5 melanoma
SK-OV-3 ovarian = test system: SK-OV-3 ovarian
SN12C renal = test system: SN12C renal
SNB-19 CNS = test system: SNB-19 CNS
SR leukemia = test system: SR leukemia
SW-620 colon = test system: SW-620 colon
T-47D breast = test system: T-47D breast
UACC-257 melanoma = test system: UACC-257 melanoma
UACC-62 melanoma = test system: UACC-62 melanoma
UO-31 renal = test system: UO-31 renal

O=C(NCc1ccncc1)C12CC3CC(C1)CC(c1ccc(Cl)cc1)(C3)C2
GI50 (A498 renal): 12.7 µM | TGI (A498 renal): 25.5 µM | GI50 (A549 NSCLC): 13.6 µM | TGI (A549 NSCLC): 26.7 µM | GI50 (ACHN renal): 15.1 µM | TGI (ACHN renal): 28.6 µM | GI50 (BT-549 breast): 8.85 µM | TGI (BT-549 breast): 21.5 µM | GI50 (CAKI-1 renal): 14.9 µM | TGI (CAKI-1 renal): 28.3 µM | GI50 (COLO 205 colon): 13.2 µM | TGI (COLO 205 colon): 26.1 µM | GI50 (DU-145 prostate): 14.5 µM | TGI (DU-145 prostate): 27.8 µM | GI50 (EKVX NSCLC): 13.2 µM | TGI (EKVX NSCLC): 26 µM | GI50 (HCC-2998 colon): 11.1 µM | TGI (HCC-2998 colon): 25.2 µM | GI50 (HCT-116 colon): 9.03 µM | TGI (HCT-116 colon): 22.7 µM | GI50 (HCT-15 colon): 11.7 µM | TGI (HCT-15 colon): 24.9 µM | GI50 (HL-60(TB) leukemia): 2.75 µM | TGI (HL-60(TB) leukemia): 6.12 µM | GI50 (HOP-62 NSCLC): 16.1 µM | TGI (HOP-62 NSCLC): 29.7 µM | GI50 (HS 578T breast): 11.8 µM | TGI (HS 578T breast): 24.2 µM | GI50 (HT29 colon): 12.1 µM | TGI (HT29 colon): 24.8 µM | GI50 (LOX IMVI melanoma): 15.9 µM | TGI (LOX IMVI melanoma): 29.6 µM | GI50 (MALME-3M melanoma): 15.6 µM | TGI (MALME-3M melanoma): 29.1 µM | GI50 (MCF7 breast): 10.4 µM | TGI (MCF7 breast): 23.5 µM | GI50 (MDA-MB-231 breast): 11.1 µM | TGI (MDA-MB-231 breast): 23.5 µM | GI50 (MDA-MB-435 melanoma): 16.5 µM | TGI (MDA-MB-435 melanoma): 30.2 µM | GI50 (MDA-MB-468 breast): 5.39 µM | TGI (MDA-MB-468 breast): 15.1 µM | GI50 (MOLT-4 leukemia): 4.37 µM | TGI (MOLT-4 leukemia): 14.7 µM | GI50 (NCI-H226 lung): 14.4 µM | TGI (NCI-H226 lung): 27.6 µM | GI50 (NCI-H23 lung): 11.9 µM | TGI (NCI-H23 lung): 24.6 µM | GI50 (NCI-H322M lung): 17.5 µM | TGI (NCI-H322M lung): 31.5 µM | GI50 (NCI-H460 NSCLC): 12.7 µM | TGI (NCI-H460 NSCLC): 25.9 µM | GI50 (NCI/ADR-RES ovarian): 9.62 µM | TGI (NCI/ADR-RES ovarian): 21.8 µM | GI50 (OVCAR-4 ovarian): 13.6 µM | TGI (OVCAR-4 ovarian): 26.5 µM | GI50 (OVCAR-8 ovarian): 13 µM | TGI (OVCAR-8 ovarian): 25.9 µM | GI50 (PC-3 prostate): 8.88 µM | TGI (PC-3 prostate): 21.7 µM | GI50 (RPMI-8226 leukemia): 3.59 µM | TGI (RPMI-8226 leukemia): 9.73 µM | GI50 (RXF 393 renal): 7.13 µM | TGI (RXF 393 renal): 20 µM | GI50 (SF-268 CNS): 14.2 µM | TGI (SF-268 CNS): 27.3 µM | GI50 (SF-295 CNS): 14.1 µM | TGI (SF-295 CNS): 27.2 µM | GI50 (SF-539 CNS): 16 µM | TGI (SF-539 CNS): 29.7 µM | GI50 (SK-MEL-2 melanoma): 13 µM | TGI (SK-MEL-2 melanoma): 25.7 µM | GI50 (SK-MEL-28 melanoma): 17.3 µM | TGI (SK-MEL-28 melanoma): 31.1 µM | GI50 (SK-MEL-5 melanoma): 8.68 µM | TGI (SK-MEL-5 melanoma): 21.2 µM | GI50 (SK-OV-3 ovarian): 16 µM | TGI (SK-OV-3 ovarian): 29.6 µM | GI50 (SN12C renal): 14.4 µM | TGI (SN12C renal): 27.5 µM | GI50 (SNB-19 CNS): 16.3 µM | TGI (SNB-19 CNS): 30 µM | GI50 (SR leukemia): 5.05 µM | TGI (SR leukemia): 9.66 µM | GI50 (SW-620 colon): 13.7 µM | TGI (SW-620 colon): 26.8 µM | GI50 (T-47D breast): 9.72 µM | TGI (T-47D breast): 23 µM | GI50 (UACC-257 melanoma): 13.7 µM | TGI (UACC-257 melanoma): 26.7 µM | GI50 (UACC-62 melanoma): 14 µM | TGI (UACC-62 melanoma): 27.1 µM | GI50 (UO-31 renal): 11.9 µM | TGI (UO-31 renal): 24.4 µM

Cc1ncsc1-c1ccc(CNC(=O)[C@@H]2C[C@@H](O)CN2C(=O)[C@@H](NC(=O)C2(C#N)CC2)C(C)(C)C)cc1
GI50 (A498 renal): > 100 µM | TGI (A498 renal): > 100 µM | GI50 (A549 NSCLC): > 100 µM | TGI (A549 NSCLC): > 100 µM | GI50 (ACHN renal): > 100 µM | TGI (ACHN renal): > 100 µM | GI50 (BT-549 breast): > 100 µM | TGI (BT-549 breast): > 100 µM | GI50 (CAKI-1 renal): > 100 µM | TGI (CAKI-1 renal): > 100 µM | GI50 (COLO 205 colon): > 100 µM | TGI (COLO 205 colon): > 100 µM | GI50 (DU-145 prostate): > 100 µM | TGI (DU-145 prostate): > 100 µM | GI50 (EKVX NSCLC): > 100 µM | TGI (EKVX NSCLC): > 100 µM | GI50 (HCC-2998 colon): > 100 µM | TGI (HCC-2998 colon): > 100 µM | GI50 (HCT-116 colon): > 100 µM | TGI (HCT-116 colon): > 100 µM | GI50 (HCT-15 colon): > 100 µM | TGI (HCT-15 colon): > 100 µM | GI50 (HL-60(TB) leukemia): > 100 µM | TGI (HL-60(TB) leukemia): > 100 µM | GI50 (HOP-62 NSCLC): > 100 µM | TGI (HOP-62 NSCLC): > 100 µM | GI50 (HS 578T breast): > 100 µM | TGI (HS 578T breast): > 100 µM | GI50 (HT29 colon): > 100 µM | TGI (HT29 colon): > 100 µM | GI50 (LOX IMVI melanoma): > 100 µM | TGI (LOX IMVI melanoma): > 100 µM | GI50 (MALME-3M melanoma): > 100 µM | TGI (MALME-3M melanoma): > 100 µM | GI50 (MCF7 breast): > 100 µM | TGI (MCF7 breast): > 100 µM | GI50 (MDA-MB-231 breast): > 100 µM | TGI (MDA-MB-231 breast): > 100 µM | GI50 (MDA-MB-435 melanoma): > 100 µM | TGI (MDA-MB-435 melanoma): > 100 µM | GI50 (MDA-MB-468 breast): > 100 µM | TGI (MDA-MB-468 breast): > 100 µM | GI50 (MOLT-4 leukemia): > 100 µM | TGI (MOLT-4 leukemia): > 100 µM | GI50 (NCI-H226 lung): > 100 µM | TGI (NCI-H226 lung): > 100 µM | GI50 (NCI-H23 lung): > 100 µM | TGI (NCI-H23 lung): > 100 µM | GI50 (NCI-H322M lung): > 100 µM | TGI (NCI-H322M lung): > 100 µM | GI50 (NCI-H460 NSCLC): > 100 µM | TGI (NCI-H460 NSCLC): > 100 µM | GI50 (NCI/ADR-RES ovarian): > 100 µM | TGI (NCI/ADR-RES ovarian): > 100 µM | GI50 (OVCAR-4 ovarian): > 100 µM | TGI (OVCAR-4 ovarian): > 100 µM | GI50 (OVCAR-8 ovarian): > 100 µM | TGI (OVCAR-8 ovarian): > 100 µM | GI50 (PC-3 prostate): > 100 µM | TGI (PC-3 prostate): > 100 µM | GI50 (RPMI-8226 leukemia): 46.7 µM | TGI (RPMI-8226 leukemia): > 90.7 µM | GI50 (RXF 393 renal): > 100 µM | TGI (RXF 393 renal): > 100 µM | GI50 (SF-268 CNS): 99.7 µM | TGI (SF-268 CNS): > 100 µM | GI50 (SF-295 CNS): > 100 µM | TGI (SF-295 CNS): > 100 µM | GI50 (SF-539 CNS): > 100 µM | TGI (SF-539 CNS): > 100 µM | GI50 (SK-MEL-2 melanoma): > 100 µM | TGI (SK-MEL-2 melanoma): > 100 µM | GI50 (SK-MEL-28 melanoma): > 100 µM | TGI (SK-MEL-28 melanoma): > 100 µM | GI50 (SK-MEL-5 melanoma): > 100 µM | TGI (SK-MEL-5 melanoma): > 100 µM | GI50 (SK-OV-3 ovarian): > 100 µM | TGI (SK-OV-3 ovarian): > 100 µM | GI50 (SN12C renal): > 100 µM | TGI (SN12C renal): > 100 µM | GI50 (SNB-19 CNS): > 100 µM | TGI (SNB-19 CNS): > 100 µM | GI50 (SR leukemia): > 100 µM | TGI (SR leukemia): > 100 µM | GI50 (SW-620 colon): > 100 µM | TGI (SW-620 colon): > 100 µM | GI50 (T-47D breast): > 100 µM | TGI (T-47D breast): > 100 µM | GI50 (UACC-257 melanoma): > 100 µM | TGI (UACC-257 melanoma): > 100 µM | GI50 (UACC-62 melanoma): > 100 µM | TGI (UACC-62 melanoma): > 100 µM | GI50 (UO-31 renal): > 100 µM | TGI (UO-31 renal): > 100 µM

Source: PubChem BioAssay (NCI)
